Paper PMC9143506, “Investigating the Mechanisms behind the Positive Food Effect of Abiraterone Acetate: In Vitro and Rat In Situ Studies” (Pharmaceutics, 2022)
In brackets after ≈: the same amount, converted by molar mass. Like-named read-outs stand apart in the source and are kept apart here.

Experiments:
[1] = PAMPA
Method: (§2) To investigate the impact of TG and lipid digestion products (FFA, MG) on the passive permeation of abiraterone, transport experiments were performed in the AMI-system according to Berben et al. [13]. In short, a regenerated cellulose membrane (molecular weight cut-off 2 kDa) was mounted between two plastic rings resulting in a surface area of 4.91 cm^2. Membrane integrity was checked by water leakage. The AMI-system was placed in a six-well plate on a shaking incubator at 37 °C and 300 rpm. A 1:3 ratio was maintained between donor and acceptor volumes by applying 2 mL of TPGS-solution to the acceptor compartment and 665 µL of the donor solution of abiraterone in the media prepared as described above. The initial concentration of abiraterone depended on the medium to ensure donor concentrations below the solubility and sufficient permeation to quantify the permeated amount in the acceptor compartment: 10 μM in FaSSIF, 30 μM in FeSSIF*, FeSSIF*-Th and FeSSIF*-E, and 150 μM in FeSSIF*-FM, FeSSIF*-FMT and FeSSIF*-FMTh. Samples (100 µL) were taken from the acceptor compartment at 15, 30, 45, 60 and 120 min and diluted 1:1 in MeOH:H2O (50:50 v/v) containing IS. Subsequently, the withdrawn volumes were replaced by fresh TPGS-solution.
(§3) The apparent permeability coefficient (Papp) was calculated from the cumulative amount of abiraterone appearing in the acceptor compartment according to Equation (1):(1) Papp=dQ/dt×1/A×Cdonor where dQ/dt is the amount of abiraterone appearing in the acceptor compartment over time, A represents the effective surface area available for transport, and Cdonor is the initial concentration in the donor compartment. Data are represented as mean ± standard deviation (SD).

[2] = design: method as in PMID 25592324; conditions: FaSSIF, pH 6.5; cited from earlier work
[3] = 1000 mg a day; cited from earlier work
[4] = 24 h, pH 6.5
Method: (§4) The apparent solubility (i.e., including both molecules freely dissolved in the aqueous phase and molecules solubilised in colloidal structures and lipid droplets [12]) of abiraterone and abiraterone acetate was determined in the different simulated fed state media (i.e., FeSSIF*, FeSSIF*-FM, FeSSIF*-FMT, FeSSIF*-FMTh, FeSSIF*-Th and FeSSIF*-E) using the shake flask method. Approximately 0.3 mg of compound was added to microcentrifuge tubes containing 0.3 mL of the abovementioned media and placed in a prewarmed shaking incubator (37 °C, 175 rpm; KS 4000 I control incubator from Ika (Staufen, Germany)) for 24 h. To the media containing lipid digestion products, 0.9 mg of compound was added instead of 0.3 mg. All solubility experiments were performed in triplicate. Afterwards, samples were centrifuged to separate the solid phase from the dissolved part (20.817 g, 30 min at 37 °C). […] To determine the solubility in the micellar layer, the top lipid layer was aspirated upon which the supernatant was diluted in MeOH:H2O (50:50 v/v) containing IS (abiraterone-d4 and abiraterone acetate-d4, final concentration 50 nM). To determine the solubility in the total sample, the entire supernatant was transferred into a new microcentrifuge tube and vortexed upon which the supernatant was diluted in MeOH:H2O (50:50 v/v) containing IS to fit the linear range.

[5] = cited from earlier work
[6] = tested on: esterase from porcine liver; experiment: Enzymatic conversion of abiraterone acetate to abiraterone by porcine esterases; type: in vitro ADME; conditions: 80 IU/mL porcine esterases
Method: (§1) The conversion of abiraterone acetate to abiraterone was studied in the abovementioned media using either 80 IU/mL esterase from porcine liver or 0.83 mg/mL porcine pancreatin. A total of 150 µM abiraterone acetate (DMSO stock solution) was added to 2 mL of the media in a 12-well plate and placed in a prewarmed shaking incubator (37 °C, 300 rpm; Thermostar, BMG Labtech, Offenburg, Germany). Samples were obtained in triplicate at predetermined time points and centrifuged immediately (20.817 g, 5 min). When lipids were present, drug concentrations were determined in both total (lipid + micellar) and micellar layer as described above.

[7] = physchem; conditions: 37 °C, Apparent solubility, micellar
Method: as §4

[8] = tested on: porcine pancreatin; experiment: Enzymatic conversion of abiraterone acetate to abiraterone by porcine pancreatin; type: in vitro ADME; conditions: porcine pancreatin 0.83 mg/mL (same with esterases), 150 μM
Method: as §1

[9] = Apparent solubility, shake flask method in simulated intestinal media; conditions: 37 °C, pH 6.5, 37 °C, mean ± SD (n = 3)
Method: as §4

[10] = Passive permeation in the artificial membrane insert system (AMI-system)
Method: as §2, §3

[11] = tested on: small intestine (ileum); experiment: Rat in situ intestinal perfusion with mesenteric blood sampling
[12] = FeSSIF*-FM, FeSSIF*-FMT and FeSSIF*-FMTh
[13] = abiraterone acetate suspension 0.5 mg/mL, 80 IU/mL esterases

Compound: CC(=O)O[C@H]1CC[C@@]2(C)C(=CC[C@@H]3[C@@H]2CC[C@]2(C)C(c4cccnc4)=CC[C@@H]32)C1 [abiraterone acetate]
- Permeation across the cellulose membrane [1]: too low
- Apparent solubility, micellar [2]: 64.6 (±5.2) ^1 µM
- Excretion of the oral dose [3]: largely excreted in the faeces
- Increase of concentration in the total sample in FeSSIF*-FMTh compared to FeSSIF*-FMT [4]: 2 fold
- Increase of solubility in FeSSIF*-FM compared to FeSSIF* [4]: 14 fold
- Log P [5]: 5.12
- Time to almost full conversion to abiraterone ([6]; FaSSIF and FeSSIF*, 150 µM, 37 °C): ≤ 30 min
- Conversion in media containing lipid degradation products [6, 12]: very limited
- Degradation in media with undigested TG ([6]; FeSSIF*-Th and FeSSIF*-E): slower degradation
- solubility at 24 h ([7]; pH 6.5, fessif, thermodynamic from solid): 148 µM
- solubility at 24 h ([7]; pH 6.5, thermodynamic from solid): 2110 µM
- Degradation in FeSSIF* compared to FeSSIF*-E [8]: degraded faster

Compound: C[C@]12CC[C@H](O)CC1=CC[C@@H]1[C@@H]2CC[C@]2(C)C(c3cccnc3)=CC[C@@H]12 [abiraterone]
- Apparent solubility, micellar [2]: 12.7 (±4.2) ^1 µM
- solubility at 24 h ([9]; FeSSIF*, micellar, pH 6.5, fessif, thermodynamic from solid): 32.7 µM (≈ 11.4 µg/mL)
- solubility at 24 h ([9]; FeSSIF*-E, micellar layer of the supernatant, pH 6.5, thermodynamic from solid, micellar layer): 22 µM (≈ 7.69 µg/mL)
- solubility at 24 h ([9]; FeSSIF*-E, total sample (micellar + lipid layer), pH 6.5, thermodynamic from solid, total sample (micellar + lipid layer), FeSSIF*-E): 39 µM
- solubility at 24 h ([9]; FeSSIF*-FM, micellar, pH 6.5, thermodynamic from solid): 176 µM (≈ 61.5 µg/mL)
- solubility at 24 h ([9]; FeSSIF*-FMT, micellar layer of the supernatant, pH 6.5, thermodynamic from solid, micellar layer): 161 µM (≈ 56.3 µg/mL)
- solubility at 24 h ([9]; FeSSIF*-FMT, total sample (micellar + lipid layer), pH 6.5, thermodynamic from solid, total sample (micellar + lipid layer), FeSSIF*-FMT): 199 µM
- solubility at 24 h ([9]; FeSSIF*-FMTh, micellar layer of the supernatant, pH 6.5, thermodynamic from solid, micellar layer): 158 µM (≈ 55.2 µg/mL)
- solubility at 24 h ([9]; FeSSIF*-FMTh, total sample (micellar + lipid layer), pH 6.5, thermodynamic from solid, total sample (micellar + lipid layer), FeSSIF*-FMTh): 221 µM
- solubility at 24 h ([9]; FeSSIF*-Th, micellar layer of the supernatant, pH 6.5, thermodynamic from solid, micellar layer): 31 µM (≈ 10.8 µg/mL)
- solubility at 24 h ([9]; FeSSIF*-Th, total sample (micellar + lipid layer), pH 6.5, thermodynamic from solid, total sample (micellar + lipid layer), FeSSIF*-Th): 50 µM
- Increase of solubility in FeSSIF*-FM compared to FeSSIF* [4]: 5 fold
- Log P ([5]; quoted in the discussion of solubility, no reference given): 3.97
- Permeability (Papp) in FaSSIF ([10]; FaSSIF, 10 μM donor, compared to Papp values of 14 compounds of ref 13): low permeability
- Lowering of permeability in FeSSIF* compared to FaSSIF ([10]; FeSSIF* vs FaSSIF): 2.6 fold
- Change of passive permeability with FFA and MG [10, 12]: significant decrease
- Effect of addition of TG to FeSSIF* on Papp ([10]; FeSSIF*-Th and FeSSIF*-E vs FeSSIF*): did not have an effect
- Supersaturation in the perfusate ([11]; FaSSIF and FeSSIF*, entire course of the experiment): apparent supersaturation
- Supersaturation in the perfusate ([11]; FeSSIF*-FM, FeSSIF*-FMT, FeSSIF*-FMTh): No supersaturation was observed
- Absorptive flux in media with lipid digestion products ([11]; FeSSIF*-FM, FeSSIF*-FMT, FeSSIF*-FMTh, abiraterone acetate suspension 0.5 mg/mL, 80 IU/mL esterases): comparable to the flux in FaSSIF
- Abiraterone AUC0–60min in the perfusate, FeSSIF* compared to FaSSIF [11, 13]: much higher
- Abiraterone flux towards the mesenteric vein, FeSSIF* compared to FaSSIF [11, 13]: increased
- Absorptive flux in FeSSIF*-E and FeSSIF*-Th compared to FaSSIF [11, 13]: increased
- Absorptive flux in FeSSIF*-Ed compared to FaSSIF and FeSSIF*-FMT ([11]; ongoing lipolysis, pancreatin 0.83 mg/mL, abiraterone acetate suspension 0.5 mg/mL): substantially higher
